Data: ChEMBL document CHEMBL1140120, “Discovery of biphenyl piperazines as novel and long acting muscarinic acetylcholine receptor antagonists” (J Med Chem, 2008)
In brackets after ≈: the same amount, converted by molar mass. Activity calls are given as the source filed them. The rule behind the calls is not given here.

How the values were obtained:
[1] = Aqueous solubility of the compound; format: physicochemical; details: buffer
Mus musculus [2] = assay: Inhibition of methacholine-induced bronchoconstriction in intranasally single dosed conscious BALB/c mouse assessed by measuring enhanced pause at 5 ug after 48 hrs by barometric plethysmography relative to control; format: functional
Mus musculus [3] = assay: Inhibition of methacholine-induced bronchoconstriction in intranasally single dosed conscious BALB/c mouse assessed by measuring enhanced pause at 5 ug after 72 hrs by barometric plethysmography relative to control; format: functional
Mus musculus [4] = assay: Inhibition of methacholine-induced bronchoconstriction in intranasally single dosed conscious BALB/c mouse assessed by measuring enhanced pause at 5 ug after 24 hrs by barometric plethysmography relative to control; format: functional
Cytochrome P450 2D6 = Cytochrome P450 2D6 (Homo sapiens, UniProt P10635); assay: Inhibition of CYP2D6; format: ADME
Sequence of Cytochrome P450 2D6 (P10635 whole entry): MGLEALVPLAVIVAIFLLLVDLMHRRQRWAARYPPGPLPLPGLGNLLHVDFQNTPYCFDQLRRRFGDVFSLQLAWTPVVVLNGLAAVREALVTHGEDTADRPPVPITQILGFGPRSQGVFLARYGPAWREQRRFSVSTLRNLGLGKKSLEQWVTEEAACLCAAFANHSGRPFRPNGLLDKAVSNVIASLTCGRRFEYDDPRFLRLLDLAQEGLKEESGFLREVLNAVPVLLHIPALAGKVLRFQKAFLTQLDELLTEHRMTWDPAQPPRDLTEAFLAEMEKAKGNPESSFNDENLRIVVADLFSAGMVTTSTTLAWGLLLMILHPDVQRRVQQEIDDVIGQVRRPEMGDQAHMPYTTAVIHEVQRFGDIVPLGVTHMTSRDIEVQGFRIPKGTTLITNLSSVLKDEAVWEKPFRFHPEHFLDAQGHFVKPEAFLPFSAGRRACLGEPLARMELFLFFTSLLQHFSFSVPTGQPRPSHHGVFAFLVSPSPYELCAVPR

[5] = Inhibition of serotonin receptor at 10 uM
Mus musculus [6] = assay: Inhibition of methacholine-induced bronchoconstriction in intranasally single dosed conscious BALB/c mouse assessed by measuring enhanced pause at 5 ug after 15 mins by barometric plethysmography relative to control; format: functional
[7] = molecular target: T1, Muscarinic acetylcholine receptor M3 (Homo sapiens, UniProt P20309); assay: Displacement of [3H]N-methyl Scopolamine from human cloned muscarinic M3 receptor expressed in CHO cells by scintillation proximity assay; format: cell-based
Target sequence in this assay (P20309 whole entry): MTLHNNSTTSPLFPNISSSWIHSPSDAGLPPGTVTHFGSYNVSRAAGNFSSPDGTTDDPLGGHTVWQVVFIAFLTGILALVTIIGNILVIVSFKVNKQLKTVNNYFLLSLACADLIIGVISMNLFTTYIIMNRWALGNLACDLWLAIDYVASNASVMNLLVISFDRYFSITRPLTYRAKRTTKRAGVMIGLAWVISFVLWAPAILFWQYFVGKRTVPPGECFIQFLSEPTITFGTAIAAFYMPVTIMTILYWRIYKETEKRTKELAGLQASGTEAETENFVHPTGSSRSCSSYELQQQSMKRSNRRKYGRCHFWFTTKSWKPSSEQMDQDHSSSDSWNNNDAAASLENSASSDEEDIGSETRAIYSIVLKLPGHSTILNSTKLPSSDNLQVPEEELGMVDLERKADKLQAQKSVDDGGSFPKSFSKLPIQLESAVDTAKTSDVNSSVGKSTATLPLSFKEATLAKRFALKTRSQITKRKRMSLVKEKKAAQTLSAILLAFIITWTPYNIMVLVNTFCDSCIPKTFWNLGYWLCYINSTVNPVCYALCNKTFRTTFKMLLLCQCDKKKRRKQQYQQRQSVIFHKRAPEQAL

[8] = molecular target: T1, Muscarinic acetylcholine receptor M3; details: CHO
Target sequence in this assay (P20309 whole entry, looked up): as the sequence (P20309 whole entry) above
Description: Antagonist activity at cloned muscarinic M3 receptor expressed in CHO cells assessed as acetylcholine-induced change in cytosolic calcium concentration pretreated for 30 mins by FLIPR assay

Cytochrome P450 3A4 = Cytochrome P450 3A4 (Homo sapiens, UniProt P08684); assay: Inhibition of CYP3A4; format: ADME
Sequence of Cytochrome P450 3A4 (P08684 whole entry): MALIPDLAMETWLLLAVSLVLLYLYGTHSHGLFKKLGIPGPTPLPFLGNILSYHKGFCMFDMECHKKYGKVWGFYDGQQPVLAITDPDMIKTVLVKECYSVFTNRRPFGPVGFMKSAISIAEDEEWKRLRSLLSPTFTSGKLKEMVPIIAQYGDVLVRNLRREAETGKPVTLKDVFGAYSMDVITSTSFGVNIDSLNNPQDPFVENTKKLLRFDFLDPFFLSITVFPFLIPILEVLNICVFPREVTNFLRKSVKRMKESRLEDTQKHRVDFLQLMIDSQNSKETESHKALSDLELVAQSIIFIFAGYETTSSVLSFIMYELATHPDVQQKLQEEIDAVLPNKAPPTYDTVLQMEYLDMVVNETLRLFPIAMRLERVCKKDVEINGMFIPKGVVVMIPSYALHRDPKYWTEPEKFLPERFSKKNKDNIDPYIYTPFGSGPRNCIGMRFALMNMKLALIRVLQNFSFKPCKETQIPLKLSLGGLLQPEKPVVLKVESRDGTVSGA

Cytochrome P450 1A2 = molecular target: T2, Cytochrome P450 1A2 (Homo sapiens, UniProt P05177); assay: Inhibition of CYP1A2; format: ADME
T2 sequence (P05177 whole entry): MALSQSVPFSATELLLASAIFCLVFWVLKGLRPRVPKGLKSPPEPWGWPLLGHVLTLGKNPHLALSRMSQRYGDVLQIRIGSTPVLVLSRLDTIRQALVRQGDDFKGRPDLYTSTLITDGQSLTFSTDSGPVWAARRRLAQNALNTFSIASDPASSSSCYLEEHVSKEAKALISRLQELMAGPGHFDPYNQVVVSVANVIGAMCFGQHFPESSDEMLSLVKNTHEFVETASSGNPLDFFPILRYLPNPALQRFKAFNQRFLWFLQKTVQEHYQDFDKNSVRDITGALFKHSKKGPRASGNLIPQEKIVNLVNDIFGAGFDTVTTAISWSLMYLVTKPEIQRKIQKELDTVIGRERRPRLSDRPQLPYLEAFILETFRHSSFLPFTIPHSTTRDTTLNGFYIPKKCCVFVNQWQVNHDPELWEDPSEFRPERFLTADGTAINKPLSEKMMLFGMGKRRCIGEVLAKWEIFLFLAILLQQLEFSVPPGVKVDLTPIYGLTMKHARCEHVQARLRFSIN

[9] = molecular target: T1, Muscarinic acetylcholine receptor M3; assay: Antagonist activity at cloned muscarinic M3 receptor expressed in CHO cells assessed as acetylcholine-induced change in cytosolic calcium concentration by FLIPR assay; format: functional, cell-based; details: read-out: pA2 (converted)
Target sequence in this assay (P20309 whole entry): as the sequence (P20309 whole entry) above

[10] = molecular target: Muscarinic acetylcholine receptor M1 and M3 (Homo sapiens) (UniProt P20309+P11229); assay: Selectivity for human cloned muscarinic M3 receptor over human cloned muscarinic M1 receptor
Sequence of Muscarinic acetylcholine receptor M1 and M3 (Homo sapiens) (P20309 whole entry, looked up, one chain of several): as the sequence (P20309 whole entry) above

[11] = Inhibition of opioid receptor at 10 uM
[12] = Permeability across artificial phospholipid membrane; format: ADME; details: not told; read-out: permeability
[13] = molecular target: Voltage-gated inwardly rectifying potassium channel KCNH2 (Homo sapiens, UniProt Q12809); assay: Inhibition of human ERG
Sequence of Voltage-gated inwardly rectifying potassium channel KCNH2 (Q12809 whole entry): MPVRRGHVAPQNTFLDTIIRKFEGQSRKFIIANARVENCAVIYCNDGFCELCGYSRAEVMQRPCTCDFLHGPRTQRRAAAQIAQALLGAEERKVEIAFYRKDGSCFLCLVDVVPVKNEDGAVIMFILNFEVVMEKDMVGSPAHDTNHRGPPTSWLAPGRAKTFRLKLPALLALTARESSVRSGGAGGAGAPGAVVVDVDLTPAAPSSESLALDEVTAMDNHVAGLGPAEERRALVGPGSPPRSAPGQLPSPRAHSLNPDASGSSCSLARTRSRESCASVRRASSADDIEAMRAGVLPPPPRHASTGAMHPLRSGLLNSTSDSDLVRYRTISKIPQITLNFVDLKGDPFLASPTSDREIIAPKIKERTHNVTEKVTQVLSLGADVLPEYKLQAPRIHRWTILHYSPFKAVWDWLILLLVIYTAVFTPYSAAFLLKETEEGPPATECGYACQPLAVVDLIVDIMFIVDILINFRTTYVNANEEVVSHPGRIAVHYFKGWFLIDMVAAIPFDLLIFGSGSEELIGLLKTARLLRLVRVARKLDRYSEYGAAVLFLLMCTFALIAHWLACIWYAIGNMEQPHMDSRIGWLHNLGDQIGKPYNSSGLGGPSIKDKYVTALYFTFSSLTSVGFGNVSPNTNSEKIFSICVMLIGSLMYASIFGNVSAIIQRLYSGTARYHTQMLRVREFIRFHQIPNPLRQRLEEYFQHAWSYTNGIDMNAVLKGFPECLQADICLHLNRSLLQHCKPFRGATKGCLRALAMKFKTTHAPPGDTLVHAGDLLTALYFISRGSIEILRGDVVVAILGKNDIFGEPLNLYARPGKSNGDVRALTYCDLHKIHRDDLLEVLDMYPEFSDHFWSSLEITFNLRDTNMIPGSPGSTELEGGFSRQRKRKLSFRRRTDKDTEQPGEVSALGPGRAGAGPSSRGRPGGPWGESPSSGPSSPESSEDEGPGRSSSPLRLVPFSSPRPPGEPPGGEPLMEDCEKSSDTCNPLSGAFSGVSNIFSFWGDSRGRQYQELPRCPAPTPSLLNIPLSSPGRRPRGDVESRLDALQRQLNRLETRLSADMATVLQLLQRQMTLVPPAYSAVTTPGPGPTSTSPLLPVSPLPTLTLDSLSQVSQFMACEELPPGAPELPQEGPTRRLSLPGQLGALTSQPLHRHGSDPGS

[14] = molecular target: T3, Muscarinic acetylcholine receptor M2 (Homo sapiens, UniProt P08172); assay: Antagonist activity at cloned muscarinic M2 receptor-Gqi5 chimeric protein expressed in CHO cells assessed as acetylcholine-induced change in cytosolic calcium concentration by FLIPR assay; format: functional, cell-based; details: read-out: pA2 (converted)
T3 sequence (P08172 whole entry): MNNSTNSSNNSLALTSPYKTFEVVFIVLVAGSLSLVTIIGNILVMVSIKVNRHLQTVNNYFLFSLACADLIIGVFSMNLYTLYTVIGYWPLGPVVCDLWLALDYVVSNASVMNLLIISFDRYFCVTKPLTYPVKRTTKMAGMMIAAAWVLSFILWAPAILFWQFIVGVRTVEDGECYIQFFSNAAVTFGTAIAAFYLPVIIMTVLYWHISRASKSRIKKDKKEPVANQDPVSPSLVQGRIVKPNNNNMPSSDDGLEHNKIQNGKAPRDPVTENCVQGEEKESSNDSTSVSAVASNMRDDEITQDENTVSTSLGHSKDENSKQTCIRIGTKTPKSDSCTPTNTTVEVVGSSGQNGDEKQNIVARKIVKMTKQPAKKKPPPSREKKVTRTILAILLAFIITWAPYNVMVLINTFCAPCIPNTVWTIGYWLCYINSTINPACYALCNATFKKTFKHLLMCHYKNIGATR

[15] = molecular target: T4, Muscarinic acetylcholine receptor M1 (Homo sapiens, UniProt P11229); assay: Antagonist activity at cloned muscarinic M1 receptor expressed in CHO cells assessed as acetylcholine-induced change in cytosolic calcium concentration by FLIPR assay; format: functional, cell-based; details: read-out: pA2 (converted)
T4 sequence (P11229 whole entry): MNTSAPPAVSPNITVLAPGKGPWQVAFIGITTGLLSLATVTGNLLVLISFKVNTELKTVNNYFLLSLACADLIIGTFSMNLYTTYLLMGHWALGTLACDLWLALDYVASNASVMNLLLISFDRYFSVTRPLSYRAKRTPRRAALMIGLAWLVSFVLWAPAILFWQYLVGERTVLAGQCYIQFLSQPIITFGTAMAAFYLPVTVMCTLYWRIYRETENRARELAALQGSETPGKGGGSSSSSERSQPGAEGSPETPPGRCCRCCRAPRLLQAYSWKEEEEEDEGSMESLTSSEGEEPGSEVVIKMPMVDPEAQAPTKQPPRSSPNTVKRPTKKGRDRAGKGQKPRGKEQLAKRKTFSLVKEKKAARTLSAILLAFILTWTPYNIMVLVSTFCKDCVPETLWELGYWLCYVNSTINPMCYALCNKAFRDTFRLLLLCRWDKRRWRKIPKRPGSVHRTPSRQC

Cytochrome P450 2C9 = Cytochrome P450 2C9 (Homo sapiens, UniProt P11712); assay: Inhibition of CYP2C9; format: ADME
Sequence of Cytochrome P450 2C9 (P11712 whole entry): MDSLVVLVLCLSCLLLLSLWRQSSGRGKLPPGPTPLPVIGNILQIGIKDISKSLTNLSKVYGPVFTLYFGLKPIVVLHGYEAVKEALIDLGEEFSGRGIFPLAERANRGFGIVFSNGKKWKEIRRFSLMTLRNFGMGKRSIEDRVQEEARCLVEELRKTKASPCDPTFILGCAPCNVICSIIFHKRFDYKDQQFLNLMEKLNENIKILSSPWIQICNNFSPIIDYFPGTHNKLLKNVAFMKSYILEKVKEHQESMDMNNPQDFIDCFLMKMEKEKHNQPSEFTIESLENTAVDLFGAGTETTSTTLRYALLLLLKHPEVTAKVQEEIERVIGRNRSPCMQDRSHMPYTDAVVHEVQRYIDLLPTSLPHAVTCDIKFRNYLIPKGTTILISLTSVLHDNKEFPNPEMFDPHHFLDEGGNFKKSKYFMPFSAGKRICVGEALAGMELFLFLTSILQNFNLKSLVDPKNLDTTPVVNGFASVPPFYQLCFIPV

Cytochrome P450 2C19 = Cytochrome P450 2C19 (Homo sapiens, UniProt P33261); assay: Inhibition of CYP2C19; format: ADME
Sequence of Cytochrome P450 2C19 (P33261 whole entry): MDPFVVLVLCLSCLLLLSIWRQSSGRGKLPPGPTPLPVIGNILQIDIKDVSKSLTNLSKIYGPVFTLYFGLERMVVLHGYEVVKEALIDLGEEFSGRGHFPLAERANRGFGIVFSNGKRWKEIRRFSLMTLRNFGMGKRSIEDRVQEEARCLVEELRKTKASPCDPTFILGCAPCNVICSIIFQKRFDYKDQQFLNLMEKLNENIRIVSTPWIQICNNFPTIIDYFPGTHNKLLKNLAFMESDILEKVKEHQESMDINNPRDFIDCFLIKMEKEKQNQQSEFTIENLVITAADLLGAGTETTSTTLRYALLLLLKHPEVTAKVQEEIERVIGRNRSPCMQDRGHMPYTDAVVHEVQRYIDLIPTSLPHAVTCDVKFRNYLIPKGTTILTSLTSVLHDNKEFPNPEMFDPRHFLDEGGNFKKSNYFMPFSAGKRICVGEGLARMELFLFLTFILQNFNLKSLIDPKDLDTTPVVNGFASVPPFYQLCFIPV

[16] = molecular target: Muscarinic acetylcholine receptors; M2 & M3 (Homo sapiens) (UniProt P20309+P08172); assay: Selectivity for human cloned muscarinic M3 receptor over human cloned muscarinic M2 receptor
Sequence of Muscarinic acetylcholine receptors; M2 & M3 (Homo sapiens) (P20309 whole entry, looked up, one chain of several): as the sequence (P20309 whole entry) above

[17] = Inhibition of alpha adrenergic receptor at 10 uM
Mus musculus [18] = assay: Inhibition of methacholine-induced bronchoconstriction in intranasally single dosed conscious BALB/c mouse assessed by measuring enhanced pause at 5 ug after 5 hrs by barometric plethysmography relative to control; format: functional
[19] = molecular target: T1, Muscarinic acetylcholine receptor M3; assay: Inhibition of human cloned muscarinic M3 receptor expressed in CHO cells by FLIPR assay; format: cell-based
Target sequence in this assay (P20309 whole entry): as above

[20] = molecular target: T3, Muscarinic acetylcholine receptor M2; assay: Inhibition of human cloned muscarinic M2 receptor-Gqi5 chimeric protein expressed in CHO cells by FLIPR assay; format: cell-based
[21] = molecular target: T4, Muscarinic acetylcholine receptor M1; assay: Inhibition of human cloned muscarinic M1 expressed in CHO cells by FLIPR assay; format: cell-based

| Structure (SMILES) | Kb [9] [nM] | Ratio [10] | Kb [14] [nM] | Kb [15] [nM] | Ratio [16] | inhibition (INH) (Mus musculus [18]) [%] | also measured |
| --- | --- | --- | --- | --- | --- | --- | --- |
| C[C@H]1CN(Cc2cccc(-c3cc(CNC(=O)c4cccc(CC5CCNCC5)c4)ccc3F)c2)CCN1 | 0.01 | 20 | 5.01 | 2.51 | 500 | 94 | solubility [1]: 200 µM (≈ 103 µg/mL); inhibition (INH) (Mus musculus [2]): 25%; inhibition (INH) (Mus musculus [3]): 25%; inhibition (INH) (Mus musculus [4]): 40%; IC50 (Cytochrome P450 2D6): > 10000 nM; inhibition [5]: 70%; inhibition (INH) (Mus musculus [6]): 96%; Ki [7]: 0.0316 nM; pKb [8]: 10.5; IC50 (Cytochrome P450 3A4): > 10000 nM; IC50 (Cytochrome P450 1A2): > 10000 nM; inhibition [11]: 70%; Papp [12]: < 0.3 ×10⁻⁶ cm/s; IC50 [13]: 10000 nM; IC50 (Cytochrome P450 2C9): > 10000 nM; IC50 (Cytochrome P450 2C19): > 10000 nM; inhibition [17]: 70% |
| C[C@H]1CN(Cc2cccc(-c3cc(CNC(=O)c4cccc(CN5CCNCC5)c4)ccc3F)c2)CCN1 | 0.158 | 6 | 63.1 | 1 | 400 | – | – |
| CC(=O)c1cccc(C(=O)NCc2ccc(F)c(-c3cccc(CN4CCN[C@@H](C)C4)c3)c2)c1 | 0.0501 | 50 | 100 | 2.51 | 2000 | 45 | Activity (Mus musculus [6]): Active |
| CCC(=O)c1cccc(C(=O)NCc2ccc(F)c(-c3cccc(CN4CCN[C@@H](C)C4)c3)c2)c1 | 0.0501 | – | 25.1 | 1 | – | 20 | Activity (Mus musculus [6]): Active |
| C[C@H]1CN(Cc2cccc(-c3cc(CNC(=O)c4cccc(C#N)c4)ccc3F)c2)CCN1 | 0.251 | – | 316 | 7.94 | – | – | – |
| C[C@H]1CN(Cc2cccc(-c3cc(CNC(=O)c4cccc(CN5CC[N+](C)(C)CC5)c4)ccc3F)c2)CCN1.O=C([O-])C(F)(F)F | – | – | 12.6 | 2 | 80 | 85 | Activity (Mus musculus [4]): inactive; inhibition (INH) (Mus musculus [6]): 95% |
| O=C(NCc1cccc(-c2cccc(CN3CCNCC3)c2)c1)c1ccc2c(c1)OCO2 | – | 5 | – | – | 100 | – | IC50 [19]: 31.6 nM; IC50 [20]: > 3160 nM; IC50 [21]: 158 nM |
